Among the data in patent publication US20260174875A1 (Novo Nordisk A/S, priority 2023, published 2026) are EC50 values, retold here.

What all share (assay type): cell-based
The target in assay [1] is T1, human GLP-1 receptor (hGLP-1R) (Homo sapiens, UniProt P43220).
T1 construct: expressed in transfected cells
Description: GLP-1 receptor assay, method B (CRE-luciferase reporter, BHK cells, 384-well).

The target of assay [2] is T2, human amylin receptor (hAMYR3) (Homo sapiens, UniProt O60896+P30988).
T2 construct: host or cells: BHK cells (Hollex-1 line expressing hCTR(a) and CRE-Luc), further transfected with human RAMP3
Kind of assay: Amylin receptor assay, method B (CRE-luciferase reporter, BHK cells). As to the method:
To assess how the activation of the receptors is potentially influenced by the presence of human serum albumin (HSA), the in vitro assays were performed in the absence of HSA and presence of 1% (w/v) HSA.
It is thus possible to measure hAMYR3 activity using a CRE-luciferase reporter gene introduced into Baby Hamster Kidney (BHK) cells co-expressing the hAMYR3.
The cell line was further transfected with human receptor modifying protein 3 (RAMP3) using standard methods.
After centrifugation, the cell pellet was resuspended and diluted to approximately 2.5-4.0×10^6 (2.5E+6 to 4.0E+6) cells/mL in Recovery™ Cell Culture Freezing Medium (Gibco, 12648-010). Cells were aliquoted and stored at −180° C. until use.
The assay buffer consisted of DMEM without phenol red (Gibco, 11880-028) supplemented with 1× GlutaMAX (Gibco, 35050-038), 10 mM HEPES (Gibco, 15630-056) and 1% (w/v) ovalbumin (Sigma, A5503) either with or without 0.1% (v/v) Pluronic F-68 (Gibco, 24040-032) and either with or without HSA (Sigma, A9511).
To perform the assay, hAMYR3 BHK Cre-Luc cells were thawed, washed once in PBS (Gibco 14190-094) and seeded in 40 μL growth medium in a white 384-well culture plate (PerkinElmer/Revvity, 6007688) at a cell density of 4.0×10^3 (4.0E+3) cells/well the day before the experiment. The plate was incubated over night at 37° C. in 5% CO2. […] Serial dilutions were then mixed in a new 96-well plate with equal volume (1:1:1 ratio) of assay buffer and either assay buffer without or with 3% HSA (Sigma, A-9511). Twenty microliters of the solution mix were transferred to the cells which previously were washed once with PBS (Gibco 14190-094). After a short centrifugation, the assay plates were incubated for 3 hours at 37° C. in 5% CO2 and let to equilibrated at room temperature for 10 minutes before the addition of 30 μL steadylite Plus™ PerkinElmer/Revvity, 6066759) per well. Plates were sealed and incubated at room temperature with gentle shaking for 30 minutes while protected from light. Luminescence was detected on a luminescence plate reader e.g., a Synergy 2 (BioTek).

Assay [3] concerns the target T3, human GIP receptor (hGIPR) (Homo sapiens, UniProt P48546).
T3 construct: expressed in transfected cells
T3 sequence (P48546 22-466): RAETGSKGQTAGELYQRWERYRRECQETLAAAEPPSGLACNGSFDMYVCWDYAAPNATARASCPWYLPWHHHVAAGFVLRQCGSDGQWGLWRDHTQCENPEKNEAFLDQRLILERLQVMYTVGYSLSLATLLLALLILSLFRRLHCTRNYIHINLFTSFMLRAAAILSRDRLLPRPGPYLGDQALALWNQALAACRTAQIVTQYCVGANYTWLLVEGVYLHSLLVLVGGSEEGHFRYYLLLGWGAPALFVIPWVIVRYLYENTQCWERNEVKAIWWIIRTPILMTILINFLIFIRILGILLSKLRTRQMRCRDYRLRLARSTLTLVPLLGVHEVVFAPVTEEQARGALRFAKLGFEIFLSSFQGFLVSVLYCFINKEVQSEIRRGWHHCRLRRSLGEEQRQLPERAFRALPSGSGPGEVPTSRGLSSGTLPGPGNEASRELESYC
Description: GIP receptor assay, method B (CRE-luciferase reporter, BHK cells, 384-well).
Description: Activation of the human GIP receptor leads to increased intra-cellular concentrations of cyclic AMP (cAMP) and the consequent transcription activation from promoters containing multiple copies of the cAMP response element (CRE). It is thus possible to measure GIP receptor activity using a CRE-luciferase reporter gene introduced into Baby Hamster Kidney (BHK) cells co-expressing the human GIP receptor.
Cells at about 80-90% confluency were washed once with PBS (Gibco 14190-094) and detached from the cell flasks with Versene (Gibco, 15040-066). After centrifugation, the cells were counted, resuspended and diluted to approximately 1.5-3.0×10^6 (1.5E+6 to 3.0E+6) cells/mL in Recovery Cell Culture Freezing Medium (Gibco, 12648-010) and stored at −180° C. in suitable aliquots until use.
The assay buffer consisted of DMEM without phenol red (Gibco, 11880-028) supplemented with 1× GlutaMAX (Gibco, 35050-038), 10 mM HEPES (Gibco, 15630-056), 1% (w/v) ovalbumin (Sigma, A5503) and 0.1% (v/v) Pluronic F-68 (Gibco, 24040-032) either with HSA or without HSA (Sigma, A9511).
Serial dilutions were transferred to a 384-well assay plate (PerkinElmer/Revvity, 6007688) and mixed with an equal volume (10 μL) of assay buffer without or with 3% HSA (Sigma, A-9511). Frozen stocks of hGIPR BHK Cre-Luc cells were thawed in a 37° C. water bath, washed once in PBS (Gibco 14190-094), diluted to 1.5×10^5 (1.5E+5) cells/mL in assay buffer (without HSA) and added (10 μL) to each well of the 384-well assay plate. After a short centrifugation, the assay plates were incubated for 3 hours at 37° C. in 5% CO2 and let to equilibrated at room temperature for 10 minutes before the addition of 30 μL steadylite Plus™ (PerkinElmer/Revvity, 6066759) per well. Plates were sealed and incubated at room temperature with gentle shaking for 30 minutes while protected from light. Luminescence was detected on a luminescence plate reader e.g. a Synergy 2 (BioTek).

The mark [4] stands for this setting: hGLP-1R Potency, 1% HSA, EC50, methods B, in the presence of 1% HSA.
The mark [5] stands for this setting: method B, absence of HSA, read-out: hGLP-1R Potency, no HSA, EC50.
The mark [6] stands for this setting: hAMYR3 Potency, 1% HSA, EC50, methods B, in the presence of 1% HSA.
The mark [7] stands for this setting: method B, absence of HSA, read-out: hAMYR3 Potency, no HSA, EC50.
[8] abbreviates: hGIPR Potency, 1% HSA, EC50, methods B, in the presence of 1% HSA.
Where [9] appears, read: method B, absence of HSA, read-out: hGIPR Potency, no HSA, EC50.

Molecules are shown by their SMILES. Read-outs that look alike come from different tables or passages of the source.

T2 sequence (P30988 25-474): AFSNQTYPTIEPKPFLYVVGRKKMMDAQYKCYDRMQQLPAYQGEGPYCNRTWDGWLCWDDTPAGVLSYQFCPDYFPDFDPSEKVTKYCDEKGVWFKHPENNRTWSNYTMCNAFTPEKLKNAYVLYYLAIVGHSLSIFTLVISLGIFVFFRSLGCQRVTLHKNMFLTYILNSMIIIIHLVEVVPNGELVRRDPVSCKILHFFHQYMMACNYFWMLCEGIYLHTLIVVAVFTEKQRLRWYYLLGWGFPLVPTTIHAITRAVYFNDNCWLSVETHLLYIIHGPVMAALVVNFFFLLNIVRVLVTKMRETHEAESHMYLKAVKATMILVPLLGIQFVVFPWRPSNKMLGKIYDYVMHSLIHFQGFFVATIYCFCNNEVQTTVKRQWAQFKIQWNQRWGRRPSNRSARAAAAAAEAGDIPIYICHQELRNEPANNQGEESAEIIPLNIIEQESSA
T2 sequence (O60896 24-148): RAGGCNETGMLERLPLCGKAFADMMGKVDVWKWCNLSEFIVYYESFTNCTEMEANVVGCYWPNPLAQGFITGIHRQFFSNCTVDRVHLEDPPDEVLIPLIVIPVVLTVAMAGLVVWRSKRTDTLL
T1 sequence (P43220 24-463): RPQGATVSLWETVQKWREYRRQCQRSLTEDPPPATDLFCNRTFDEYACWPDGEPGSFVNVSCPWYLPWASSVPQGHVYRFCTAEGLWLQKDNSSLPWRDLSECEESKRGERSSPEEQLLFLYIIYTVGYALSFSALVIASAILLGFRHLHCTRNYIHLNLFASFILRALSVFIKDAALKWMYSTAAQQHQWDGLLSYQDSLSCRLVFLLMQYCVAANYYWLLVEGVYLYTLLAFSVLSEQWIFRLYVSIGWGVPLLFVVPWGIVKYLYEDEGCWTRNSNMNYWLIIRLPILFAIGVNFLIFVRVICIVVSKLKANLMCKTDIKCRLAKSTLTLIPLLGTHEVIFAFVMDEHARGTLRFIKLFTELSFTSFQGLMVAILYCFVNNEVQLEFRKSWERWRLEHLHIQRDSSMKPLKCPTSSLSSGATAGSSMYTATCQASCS

`CC[C@H](C)[C@H](NC(=O)[C@H](CCC(=O)O)NC(=O)[C@H](CCC(=O)O)NC(=O)[C@H](CC(C)C)NC(=O)[C@H](CC(C)C)NC(=O)[C@@H](NC(=O)[C@H](CO)NC(=O)[C@H](Cc1ccc(O)cc1)NC(=O)[C@H](CC(=O)O)NC(=O)[C@H](CO)NC(=O)[C@@H](NC(=O)[C@H](Cc1ccccc1)NC(=O)[C@@H](NC(=O)CNC(=O)[C@H](CCC(=O)O)NC(=O)C(C)(C)NC(=O)[C@@H](N)Cc1ccc(O)cc1)[C@@H](C)O)[C@@H](C)O)[C@@H](C)CC)C(=O)N[C@@H](C)C(=O)N[C@@H](C)C(=O)N[C@@H](CCCNC(=N)N)C(=O)N[C@@H](CCC(=O)O)C(=O)N[C@@H](Cc1ccccc1)C(=O)N[C@H](C(=O)N[C@@H](CCC(=O)O)C(=O)N[C@@H](Cc1c[nH]c2ccccc12)C(=O)N[C@@H](CC(C)C)C(=O)N[C@@H](CC(C)C)C(=O)N[C@@H](C)C(=O)NCC(=O)NCC(=O)N1CCC[C@H]1C(=O)N[C@@H](CO)C(=O)N[C@@H](CO)C(=O)NCC(=O)N[C@@H](C)C(=O)NCC(=O)N[C@@H](CCC(N)=O)C(=O)N[C@@H](C)C(=O)N1CCC[C@H]1C(=O)NCC(=O)N[C@@H](CCC(=O)O)C(=O)N[C@@H](C)C(=O)N1CCC[C@H]1C(=O)NCC(=O)N[C@@H](C)C(=O)N[C@@H](CO)C(=O)N[C@@H](Cc1c[nH]cn1)C(=O)N[C@@H](CC(C)C)C(=O)N[C@@H](CO)C(=O)N[C@H](C(=O)N[C@@H](C)C(=O)N[C@@H](CCC(N)=O)C(=O)N[C@H](C(=O)N[C@@H](CCC(N)=O)C(=O)N[C@@H](CCCNC(=N)N)C(=O)N[C@@H](CC(C)C)C(=O)N[C@@H](CO)C(=O)N[C@@H](C)C(=O)N[C@@H](CCC(=O)O)C(=O)N[C@@H](CC(C)C)C(=O)N[C@@H](Cc1c[nH]cn1)C(=O)N[C@@H](CCCCNC(=O)COCCOCCNC(=O)COCCOCCNC(=O)CC[C@H](NC(=O)CCCCCCCCCCCCCCCCCCC(=O)O)C(=O)O)C(=O)N[C@@H](CC(C)C)C(=O)N[C@@H](C)C(=O)N[C@H](C(=O)N[C@@H](CC(C)C)C(=O)N1CCC[C@H]1C(=O)N[C@@H](CCCNC(=N)N)C(=O)N[C@H](C(=O)N[C@@H](CCC(=O)O)C(=O)N[C@H](C(=O)NCC(=O)N[C@@H](CO)C(=O)NCC(=O)N[C@@H](CO)C(=O)N1CCC[C@H]1C(N)=O)[C@@H](C)O)[C@@H](C)O)[C@@H](C)O)[C@@H](C)O)[C@@H](C)O)[C@@H](C)CC` [Compound 152]: the EC50 is 0.0674 nM in assay [1] (setting [4]); 0.0224 nM in assay [1] (setting [5]); 0.914 nM in assay [2] (setting [6]); 0.0085 nM in assay [2] (setting [7]); 0.0114 nM in assay [3] (setting [8]); 0.00383 nM in assay [3] (setting [9]).

`CC[C@H](C)[C@H](NC(=O)[C@H](CCC(=O)O)NC(=O)[C@H](CCC(=O)O)NC(=O)[C@H](CC(C)C)NC(=O)[C@H](CC(C)C)NC(=O)[C@@H](NC(=O)[C@H](CO)NC(=O)[C@H](Cc1ccc(O)cc1)NC(=O)[C@H](CC(=O)O)NC(=O)[C@H](CO)NC(=O)[C@@H](NC(=O)[C@H](Cc1ccccc1)NC(=O)[C@@H](NC(=O)CNC(=O)[C@H](CCC(=O)O)NC(=O)C(C)(C)NC(=O)[C@@H](N)Cc1ccc(O)cc1)[C@@H](C)O)[C@@H](C)O)[C@@H](C)CC)C(=O)N[C@@H](C)C(=O)N[C@@H](C)C(=O)N[C@@H](CCCNC(=N)N)C(=O)N[C@@H](CCC(=O)O)C(=O)N[C@@H](Cc1ccccc1)C(=O)N[C@H](C(=O)N[C@@H](CCC(=O)O)C(=O)N[C@@H](Cc1c[nH]c2ccccc12)C(=O)N[C@@H](CC(C)C)C(=O)N[C@@H](CC(C)C)C(=O)N[C@@H](C)C(=O)NCC(=O)NCC(=O)N1CCC[C@H]1C(=O)N[C@@H](CO)C(=O)N[C@@H](CO)C(=O)NCC(=O)N[C@@H](C)C(=O)NCC(=O)N[C@@H](CCC(N)=O)C(=O)N[C@@H](C)C(=O)N1CCC[C@H]1C(=O)N[C@@H](CCC(=O)O)C(=O)N[C@@H](CCC(N)=O)C(=O)N[C@@H](C)C(=O)N1CCC[C@H]1C(=O)NCC(=O)N[C@@H](C)C(=O)N[C@@H](CO)C(=O)N[C@@H](Cc1c[nH]cn1)C(=O)N[C@@H](CC(C)C)C(=O)N[C@@H](CO)C(=O)N[C@H](C(=O)N[C@@H](C)C(=O)N[C@@H](CCC(N)=O)C(=O)N[C@H](C(=O)N[C@@H](CCC(N)=O)C(=O)N[C@@H](CCCNC(=N)N)C(=O)N[C@@H](CC(C)C)C(=O)N[C@@H](CO)C(=O)N[C@@H](C)C(=O)N[C@@H](CCC(=O)O)C(=O)N[C@@H](CC(C)C)C(=O)N[C@@H](Cc1c[nH]cn1)C(=O)N[C@@H](CCCCNC(=O)COCCOCCNC(=O)COCCOCCNC(=O)CC[C@H](NC(=O)CCCCCCCCCCCCCCCCCCC(=O)O)C(=O)O)C(=O)N[C@@H](CC(C)C)C(=O)N[C@@H](C)C(=O)N[C@H](C(=O)N[C@@H](CC(C)C)C(=O)N1CCC[C@H]1C(=O)N[C@@H](CCCNC(=N)N)C(=O)N[C@H](C(=O)N[C@@H](CCC(=O)O)C(=O)N[C@H](C(=O)NCC(=O)N[C@@H](CO)C(=O)NCC(=O)N[C@@H](CO)C(=O)N1CCC[C@H]1C(N)=O)[C@@H](C)O)[C@@H](C)O)[C@@H](C)O)[C@@H](C)O)[C@@H](C)O)[C@@H](C)CC` [Compound 151]: the EC50 in assay [1] (setting [4]) is 0.0726 nM; in assay [1] (setting [5]), 0.0277 nM; in assay [2] (setting [6]), 0.95 nM; in assay [2] (setting [7]), 0.00967 nM; in assay [3] (setting [8]), 0.0139 nM; in assay [3] (setting [9]), 0.00399 nM.

On to `CC[C@H](C)[C@H](NC(=O)[C@H](CCC(=O)O)NC(=O)[C@H](CCC(=O)O)NC(=O)[C@H](CC(C)C)NC(=O)[C@H](CC(C)C)NC(=O)[C@@H](NC(=O)[C@H](CO)NC(=O)[C@H](Cc1ccc(O)cc1)NC(=O)[C@H](CC(=O)O)NC(=O)[C@H](CO)NC(=O)[C@@H](NC(=O)[C@H](Cc1ccccc1)NC(=O)[C@@H](NC(=O)CNC(=O)[C@H](CCC(=O)O)NC(=O)C(C)(C)NC(=O)[C@@H](N)Cc1ccc(O)cc1)[C@@H](C)O)[C@@H](C)O)[C@@H](C)CC)C(=O)N[C@@H](C)C(=O)N[C@@H](C)C(=O)N[C@@H](CCCNC(=N)N)C(=O)N[C@@H](CCC(=O)O)C(=O)N[C@@H](Cc1ccccc1)C(=O)N[C@H](C(=O)N[C@@H](CCC(=O)O)C(=O)N[C@@H](Cc1c[nH]c2ccccc12)C(=O)N[C@@H](CC(C)C)C(=O)N[C@@H](CC(C)C)C(=O)N[C@@H](C)C(=O)NCC(=O)NCC(=O)N1CCC[C@H]1C(=O)N[C@@H](CO)C(=O)N[C@@H](CO)C(=O)NCC(=O)N[C@@H](C)C(=O)NCC(=O)N[C@@H](CCC(N)=O)C(=O)N[C@@H](C)C(=O)N1CCC[C@H]1C(=O)NCC(=O)N[C@@H](CCC(N)=O)C(=O)N[C@@H](C)C(=O)N1CCC[C@H]1C(=O)NCC(=O)N[C@@H](C)C(=O)N[C@@H](CO)C(=O)N[C@@H](Cc1c[nH]cn1)C(=O)N[C@@H](CC(C)C)C(=O)N[C@@H](CO)C(=O)N[C@H](C(=O)N[C@@H](C)C(=O)N[C@@H](CCC(N)=O)C(=O)N[C@H](C(=O)N[C@@H](CCC(N)=O)C(=O)N[C@@H](CCCNC(=N)N)C(=O)N[C@@H](CC(C)C)C(=O)N[C@@H](CO)C(=O)N[C@@H](C)C(=O)N[C@@H](CCC(=O)O)C(=O)N[C@@H](CC(C)C)C(=O)N[C@@H](Cc1c[nH]cn1)C(=O)N[C@@H](CCCCNC(=O)COCCOCCNC(=O)COCCOCCNC(=O)CC[C@H](NC(=O)CCCCCCCCCCCCCCCCCCC(=O)O)C(=O)O)C(=O)N[C@@H](CC(C)C)C(=O)N[C@@H](C)C(=O)N[C@H](C(=O)N[C@@H](CC(C)C)C(=O)N1CCC[C@H]1C(=O)N[C@@H](CCCNC(=N)N)C(=O)N[C@H](C(=O)N[C@@H](CCC(=O)O)C(=O)N[C@H](C(=O)NCC(=O)N[C@@H](CO)C(=O)NCC(=O)N[C@@H](CO)C(=O)N1CCC[C@H]1C(N)=O)[C@@H](C)O)[C@@H](C)O)[C@@H](C)O)[C@@H](C)O)[C@@H](C)O)[C@@H](C)CC` [Compound 120], for which the 50% effective concentration (EC50) in assay [1] (setting [4]) worked out at 0.129 nM; in assay [2] (setting [6]) it was 0.774 nM; in assay [2] (setting [7]), 0.00631 nM; in assay [3] (setting [8]), 0.02 nM; in assay [3] (setting [9]), 0.0029 nM.
